From patent US6812218B2, “Lipid derivatives of polythiourea” (Gencell S.A., priority 2001, dated 2004)

Legend:
plasmid pXL3031 = assay: ethidium bromide fluorescence test of nucleic acid compaction; format: binding; settings: conditions identical to the DT-3TU mixtures, 150 mM sodium chloride
Experimental: In the text which follows, the nucleic acid used was the plasmid pXL3031 described in the publication Gene Therapy (1999) 6, pp. 1482-1488, which contained the luc gene encoding luciferase under the control of the cytomegalovirus CMV E/P promoter. This plasmid is represented in FIG. 7. Its size is 3671 bp. The plasmid solution used was diluted to 1.262 g/l in water for injection.
(§1) The nucleic acid was brought into contact with increasing quantities of DT-3TU (12), by equivolumetric mixing of lipid solutions of various titers in the solutions of nucleic acid. Samples of 800 μl of nucleic acid complexes with a concentration of 0.01 μg/ml were thus prepared in a 150 mM sodium chloride solution with increasing quantities of DT-3TU (12).
as §1, with “In the same manner, a control was prepared by bringing the” for “The”, “acid” for “acid was brought”, “EPC (see FIG. 1) or of DPPC (see FIG. 2),” for “DT-3TU (12),”, “[…]” for “μg/ml”, “EPC or of DPPC (FIGS. 1 and 2 respectively).” for “DT-3TU (12).”
The ethidium bromide fluorescence was measured over time (measured at 20° C.) using a FluoroMax-2 (Jobin Yvon-Spex) with excitation and emission wavelengths of 260 nm and 590 nm respectively. […]

[1] = test system: tibial and cranial muscles; assay: in vivo muscle transfection, luciferase expression; set-up: species or system mice C57bl/6; settings: intramuscular, 3 μg of DNA, 96 hours after injection
Experimental: Muscles samples were taken 96 hours after the injection and the level of expression for luciferase was measured using a luminometer (wallace).
Complexes containing increasing quantities of DT-3TU lipid per μg of DNA were injected in both tibial and cranial muscles of the mice, to which electric pulsations were or were not applied (Bureau, M et al, BBA 2000).
The mice C57bl/6 had undergone previously anaesthetic with a mixture of Ketamin/Xylazine. The injection was or was not followed by the application of transcutaneous electric pulsations using electrodes placed in both ends of the muscle (Bureau, M et al, BBA 2000).
96 hours after the injection, the mice underwent euthanasia, muscles samples were taken and ground in 1 ml buffer lyse solution. After centrifugation (10 min., 12000 rpm, 4° C.), supernatant (10 μl) was taken and placed in a 96 well plate to read the luciferase after adding 50 μl of luciferase substrate. The level of luminescence was read in the supernatant using a luminometer (Wallace, Victor).

[2] = size of the lipid/DNA particles; format: physicochemical; settings: without lipid-PEG
Description: The use of cholesterol-PEG in the DT-3TU/DPPC formulations has the advantage of permitting the reduction of the particles to such a quantity of lipid that, in the case of the absence of lipid-PEG, would lead to aggregation. […] In order to obtain particles of this size it is necessary to use at least 40 nmol of the lipid DT-3TU/μg of DNA. Thus, the use of lipid-PEG in the formulations of the lipid DT-3TU has the advantage of reducing the quantity of DT-3TU necessary to compact the DNA and form particles whose size is smaller than 500 nm

HeLa cells [3] = assay: toxicity toward the cells, protein level after transfection; format: cell-based, human; settings: lipoplexes with 0.75 to 20 nmol of DT-3TU per μg of DNA
Experimental: The protein level was measured after transfection. The transfection protocol was identical to that described in Example 8.
Briefly, the transfected cells were washed twice with 500 μl of PBS (phosphate buffer) and then lysed with 250 μl of reagent (Promega cell culture lysis reagent, of the Luciferase Assay System kit). An aliquot of 50 μl of supernatant of the lysate centrifuged (12,000×g) for 5 minutes at 4° C. was transferred into a tube in the presence of 50 μl of 0.1 M iodoacetamide, 0.1 M hydrochloric acid tris at pH 8.2 and left for 1 hour at 37° C. 20 μl of the preceding solutions were deposited in a 96-well plate and 200 μl of “BCA protein assay” reagent (Pierce, Montluson, France) were added. The plate was then centrifuged at 2500 revolutions/min and then incubated at 37° C. for 30 minutes. In parallel, a bovine serum albumin (BSA) range was prepared in order to correlate the absorbance value obtained for the samples with a quantity of protein present in the sample.

HeLa cells [4] = assay: in vitro transfection, luciferase activity; format: cell-based, human; settings: 10% FCS versus without serum
Experimental: This study was carried out for lipoplexes comprising various quantities of DT-3TU: 1.5 or 5 or 10 or 15 or 20 nmol of DT-3TU/μg of DNA. Each of these conditions was tested with and without fetal calf serum (“+Serum” or “−Serum”).
HeLa cells (American type Culture Collection (ATCC) Rockville, Md., USA) derived from a carcinoma of human cervical epithelium, were cultured in the presence of an MEM (“minimum essential medium”) type medium with addition of 2 mM L-glutamine, 50 units/ml of penicillin and 50 units/ml of streptomycin. The medium and the additives were from Gibco-BRL Life Technologies (Gaithersburg, Md., USA). The cells were cultured in flasks at 37° C. and at 5% carbon dioxide in an incubator.
one day before the transfection, the HeLa cells were transferred into […] with a cell number of 30,000 to 50,000 per well. These dilutions represent approximately 80% confluence after 24 hours. […]
Briefly, the transfected cells were washed twice with 500 μl of PBS (phosphate buffer) and then lysed with 250 μl of reagent (Promega cell culture lysis reagent, of the Luciferase Assay System kit). An aliquot of 10 μl of supernatant of the lysate centrifuged (12,000×g) for 5 minutes at 4° C. was measured with a Wallace Victor 2 luminometer (1420 Multilabel couter). […]

Compound	decrease in fluorescence, lipid alone (control) (plasmid pXL3031)	level of expression (luciferase) versus background noise of control muscle [1]	transfection of muscle tissues ([1]; 20 and 40 nmol of DT-3TU lipid per μg of DNA, with or without electric pulsations)	quantity of lipid necessary to obtain particles inferior to 500 nm [2]	toxicity toward the cells (HeLa cells [3])	effect of the presence of serum on transfection (HeLa cells [4])
CCCCCCCCCCCCCCCC(=O)OC[C@H](COP(=O)([O-])OCC[N+](C)(C)C)OC(=O)CCCCCCCCCCCCCCC [DPPC, 1,2-dipalmitoyl-sn-glycero-3-phosphocholine]	about 5%					
CCCCCCCCCCCCCCN(CCCCCCCCCCCCCC)C(=O)CCC(=O)NCCNC(=S)NCCNC(=S)NCCNC(=S)NC [DT-3TU, 3-(2-{3-[2-(3-{2-[3-(ditetradecylcarbamoyl)propionylamino]ethyl}thioureido)ethyl]thioureido}ethyl)-1-methylthiourea]		> 5.0×10^4	significant level of transfection	at least 40 nmol of the lipid DT-3TU/μg of DNA	no toxicity was observed	weak inhibition of transfection
